In one series the target is T1, Kallikrein-14 (Homo sapiens, UniProt Q9P0G3).
T1 sequence (Q9P0G3 whole entry): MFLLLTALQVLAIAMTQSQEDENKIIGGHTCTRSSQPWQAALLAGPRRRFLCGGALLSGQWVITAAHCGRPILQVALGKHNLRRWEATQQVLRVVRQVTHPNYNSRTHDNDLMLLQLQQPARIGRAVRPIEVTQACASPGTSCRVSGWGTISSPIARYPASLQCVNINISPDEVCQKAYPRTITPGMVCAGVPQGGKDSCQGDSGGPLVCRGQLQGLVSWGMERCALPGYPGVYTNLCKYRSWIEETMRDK
Nature of the series: Inhibition of recombinant C-terminal 10His-tagged human KLK14 (Gln19 to Met248 residues) expressed in mouse NS0 cells using BOC-VPR-AMC as substrate after 40 mins by fluorescence intensity assay.

Series [1] addresses T2, Suppressor of tumorigenicity 14 protein (Homo sapiens, UniProt Q9Y5Y6).
T2 sequence (Q9Y5Y6 whole entry): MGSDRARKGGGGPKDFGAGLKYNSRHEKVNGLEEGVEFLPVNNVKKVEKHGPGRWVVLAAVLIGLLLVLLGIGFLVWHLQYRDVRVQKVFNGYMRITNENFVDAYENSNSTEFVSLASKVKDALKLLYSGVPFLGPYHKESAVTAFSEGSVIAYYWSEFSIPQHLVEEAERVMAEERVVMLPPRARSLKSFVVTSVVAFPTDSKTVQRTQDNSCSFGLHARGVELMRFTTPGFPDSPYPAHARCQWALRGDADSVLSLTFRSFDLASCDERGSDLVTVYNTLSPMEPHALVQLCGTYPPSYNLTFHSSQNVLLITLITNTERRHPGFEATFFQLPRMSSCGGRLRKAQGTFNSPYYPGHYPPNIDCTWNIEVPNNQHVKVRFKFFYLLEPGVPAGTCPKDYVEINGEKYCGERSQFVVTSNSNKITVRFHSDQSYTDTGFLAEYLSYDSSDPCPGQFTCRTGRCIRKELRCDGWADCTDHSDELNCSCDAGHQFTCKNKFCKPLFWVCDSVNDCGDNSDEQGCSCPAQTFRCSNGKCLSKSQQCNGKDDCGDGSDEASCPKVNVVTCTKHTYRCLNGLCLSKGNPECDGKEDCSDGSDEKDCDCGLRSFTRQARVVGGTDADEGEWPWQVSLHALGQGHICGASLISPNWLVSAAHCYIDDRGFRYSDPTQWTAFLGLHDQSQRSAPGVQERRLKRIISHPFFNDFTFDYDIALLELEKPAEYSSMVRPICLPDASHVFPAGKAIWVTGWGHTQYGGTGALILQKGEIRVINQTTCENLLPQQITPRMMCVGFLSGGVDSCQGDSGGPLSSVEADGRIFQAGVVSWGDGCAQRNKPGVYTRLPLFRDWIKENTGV
Nature of the series: Inhibition of recombinant human N-terminal met-His6-tagged matriptase catalytic domain (Gly596 to Val855 residues) expressed in Escherichia coli using Boc-QAR-AMC as substrate after 40 mins by fluorescence intensity assay.

In the next series the target is T3, Neutrophil elastase (Homo sapiens, UniProt P08246).
T3 sequence (P08246 whole entry): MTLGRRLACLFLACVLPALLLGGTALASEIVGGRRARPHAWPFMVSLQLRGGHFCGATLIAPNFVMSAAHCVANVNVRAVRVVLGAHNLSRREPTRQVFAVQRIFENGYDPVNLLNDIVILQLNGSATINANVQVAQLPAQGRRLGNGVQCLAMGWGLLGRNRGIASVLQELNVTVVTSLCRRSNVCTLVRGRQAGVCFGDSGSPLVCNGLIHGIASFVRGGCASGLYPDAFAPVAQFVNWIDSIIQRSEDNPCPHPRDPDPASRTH
Nature of the series: Inhibition of human neutrophil elastase using MeOSuc-AAPV-AMC as substrate after 40 mins by fluorescence intensity assay.

Series [2] is filed under the species Homo sapiens. Nature of the series: Selectivity index, ratio of compound effect for inhibition of recombinant C-terminal 10-His tagged human KLK7 (Glu23 to His252 residues) expressed in mouse NS0 cells to compound effect for inhibition of recombinant 6His-Q-FLAG tagged human KLK5 expressed in baculovirus infected insect Sf9 cells.
The species entered for series [3] is Homo sapiens. The series can be described thus: Selectivity index, ratio of compound effect for inhibition of human neutrophil elastase to compound effect for inhibition of recombinant 6His-Q-FLAG tagged human KLK5 expressed in baculovirus infected insect Sf9 cells.
The species entered for series [4] is Homo sapiens. Nature of the series: Selectivity index, ratio of compound effect for inhibition of recombinant C-terminal 10-His tagged human KLK8 (Gln29 to Gly260 residues) expressed in mouse NS0 cells to compound effect for inhibition of recombinant 6His-Q-FLAG tagged human KLK5 expressed in baculovirus infected insect Sf9 cells.
The test system of another series is Keratinocyte. Nature of the series: Induction of irritation in human epidermal keratinocytes assessed as effect on cell viability over 24 hrs. Type of series: cell-based.
Series [5] can be described thus: Solubility of the compound in pH 8 Britton-Robinson buffer at 24 hrs. Type of series: physicochemical.
Series [6] can be described thus: Half life in pH 8 buffer at 0.05 mg/ml under H2O2-induced oxidative condition over 24 hrs. It counts as physicochemical. Particulars: buffer with H2O2, pH 8.

Molecules are shown by their SMILES. Converted amounts (≈) assume the structure as drawn. A value given as a limit tells only on which side of the number the result lay.

What is called IC50 is the concentration that inhibits the measured activity by half. A word on the solubility: it is the concentration that dissolves in the medium under given conditions. Higher therefore signals much dissolved substance. As usually defined, the half-life is how long it takes for the measured level to halve.

For the molecule `N=C(N)c1ccc(NCc2nc(-c3ccccc3)c[nH]2)cc1OCc1cccnc1`, the IC50 at Kallikrein-14 was 3.98 µM; in series [1], 25.1 µM; on Neutrophil elastase, over 100 µM. The Selectivity Index is over 100 in the series listed under Homo sapiens [2], over 100 in the series listed under Homo sapiens [3] and 10 in the series filed under Homo sapiens [4]. Further, the Activity result in the series with Keratinocyte was “Non-Toxic”. The same molecule registered a solubility at 24 h in [5] of 180 µg/mL (≈ 452 µM). Moreover, the half-life at 0.05 mg/ml in series [6] is 10.1 h.
